“Also recorded” adds a separate entry of the source.
Legend:
[1] = test system: F98/hNIS gliomas; experiment: 99mTcO4 scintigraphy of intracerebral F98/hNIS gliomas; type: in vivo, rat; details: about 20 min after tail vein injection
Description: (§1) Fischer rats weighing 175 to 200 grams (Harlan Sprague Dawley, Indianapolis, Ind.) were stereotactically implanted with tumor cells.^11,21 The tumor cells were either F98 cells or F98 cells which had been infected with and expressed a wild-type NIS protein (see Example 1). All experimental procedures received approval from Institutional Laboratory Animal Care and Use Committee of the Ohio State University. Briefly, rats were sedated by intraperitoneal (i.p.) administration of 120 mg of ketamine/20 mg of xylazine (Fort Dodge, Fort Dodge, IA) per kg of body weight, after which a plastic screw (Arrow Machine Manufacturing, Inc., Richmond, VA) was embedded into the cranium. F98 cells were injected within 10 to 15 seconds through a central hole in the plastic screw into the right hemisphere at a concentration of 10^3 (for therapeutic study) or 10^5 (for imaging study) cells in 10 μl of serum-free DMEM containing 1.4% agarose with a gelling temperature of <30° C. The screw hole was filled with bone wax immediately following withdrawal of the needle, and the operative field was flushed with betadine before the scalp incision was closed with a single sterilized clip.
(§2) Rats were anesthetized by i.p. injection of ketamine/xylazine, and then 2.0 mCi of ^99mTcO4 in 0.2 ml volume was administered via tail vein injection. […]

[2] = test system: parental F98 tumors; experiment: 99mTcO4 scintigraphy of intracerebral parental F98 tumors; type: in vivo, rat; details: about 20 min after tail vein injection
Description: as §1, §2

[3] = target: T1, hNIS (Homo sapiens, UniProt Q92911); experiment: inhibition of induced RAIU in hNIS-transduced F98 cells; type: cell-based
T1 construct: expressed in transfected cells; host or cells: F98 rat glioma cells infected with L-hNIS-SN recombinant retrovirus, G418-selected clone
T1 sequence (Q92911 1-643): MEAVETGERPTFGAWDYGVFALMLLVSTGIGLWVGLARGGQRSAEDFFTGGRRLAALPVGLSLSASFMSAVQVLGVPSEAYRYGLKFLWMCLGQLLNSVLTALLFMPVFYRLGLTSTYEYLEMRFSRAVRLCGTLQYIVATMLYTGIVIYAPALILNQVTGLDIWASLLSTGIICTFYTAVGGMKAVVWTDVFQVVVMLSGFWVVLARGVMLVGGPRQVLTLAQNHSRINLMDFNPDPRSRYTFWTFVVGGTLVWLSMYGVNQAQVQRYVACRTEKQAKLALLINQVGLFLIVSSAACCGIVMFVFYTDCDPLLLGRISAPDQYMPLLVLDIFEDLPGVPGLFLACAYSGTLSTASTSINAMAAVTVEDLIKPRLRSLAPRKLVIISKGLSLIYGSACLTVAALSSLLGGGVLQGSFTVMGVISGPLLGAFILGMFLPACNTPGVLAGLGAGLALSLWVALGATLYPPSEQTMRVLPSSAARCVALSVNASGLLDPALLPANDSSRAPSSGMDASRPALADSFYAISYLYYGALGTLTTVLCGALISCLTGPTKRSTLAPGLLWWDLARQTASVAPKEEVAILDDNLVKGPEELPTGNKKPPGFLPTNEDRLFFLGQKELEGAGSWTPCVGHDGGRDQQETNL
Description: NIS function in the hNIS-transduced F98 glioma cells was tested in vitro by radioiodide uptake assay^5 (RAIU). Cells (2×10^5 cells per well) were seeded in 24-well plates. At various times after seeding, the cells were incubated for 30 min at 37° C., 5.0% CO2 with growth media containing 2.0 μCi Na ^125I and 5-10 μM NaI carrier. The medium was aspirated and cells were quickly washed twice with ice-cold Hank's balanced salt solution (HBSS). Cells were then lysed by incubation with 95% ethanol. The radioactivity of the cell lysate was measured by a γ-counter (Packard Instruments, Downers Grove, Ill., USA). Experiments were performed in triplicate. The RAIU activity of the infected cells was expressed in terms of fold increase compared with that of mock-infected parental cells.

[4] = test system: F98/hNIS tumors; experiment: 131I therapy study, intracerebral hNIS-transduced tumors; type: in vivo, rat
Description: as §1
For ^131I therapy studies, rats were implanted stereotatically with 1×10^3 F98 cells on day 0, and the animals were divided into 3 groups: empty vector transduced tumors with ^131I treatment (F98/LXSN+^131I), hNIS transduced tumors without ^131I treatment (F98/hNIS—^131I), hNIS transduced tumors with ^131I treatment (F98/hNIS+^131I). Each group contained 12 rats. To minimize exposure of the thyroid gland to ^131I, rats were placed on 1 ppm thyroxine (T4)-supplemented diet (Harlan Teklad, Madison, Wis.) beginning one week prior to the first day of ^131I treatment. Animals received three i.p. injections, 4 mCi of ^131I per injection, on days 12, 14 and 16 post-implantation for a total of 12 mCi. The tumor size index on day 14 was assumed to be ˜2 mm^2 based on a previous study.^18 Animals were weighed three times per week. […] Therefore, animals displaying these signs were sacrificed, and survival times were determined from the day of tumor implantation to the day of sacrifice plus 1 day.^21,24 The observers were not blinded to sacrifice the rats. To confirm that all animals had progressively growing tumors at the time of death, the brains were removed, fixed in 10% neutral buffered formalin, and then 2-mm coronal sections were cut with a rat brain slicer (Zivic-Miller Laboratories, Inc., Allison Park, PA), and processed for routine histopathological examination. Tumor size was measured as (the longest length)×(the length perpendicular to the longest length) in tumor sections. Survival among different experimental groups was compared using unpaired t test as well as Log-rank test. Tumor sizes among different experimental groups were compared using unpaired t test. The P value of <0.05 were considered statistically significant.

[5] = test system: F98/LXSN tumors; experiment: 131I therapy study, intracerebral empty vector transduced tumors; type: in vivo, rat
Description: as §1
For ^131I therapy studies, rats were implanted stereotatically with 1×10^3 F98 cells on day 0, and the animals were divided into 3 groups: empty vector transduced tumors with ^131I treatment (F98/LXSN+^131I), hNIS transduced tumors without ^131I treatment (F98/hNIS—^131I), hNIS transduced tumors with ^131I treatment (F98/hNIS+^131I). Each group contained 12 rats. To minimize exposure of the thyroid gland to ^131I, rats were placed on 1 ppm thyroxine (T4)-supplemented diet (Harlan Teklad, Madison, Wis.) beginning one week prior to the first day of ^131I treatment. […] Therefore, animals displaying these signs were sacrificed, and survival times were determined from the day of tumor implantation to the day of sacrifice plus 1 day.^21,24 The observers were not blinded to sacrifice the rats. […] Tumor size was measured as (the longest length)×(the length perpendicular to the longest length) in tumor sections. […]

[6] = test system: F98/hNIS gliomas; experiment: serial 123I scintigraphy, radioiodide retention in tumor; type: in vivo, rat
Description: as §1
Serial ^123I images were obtained to determine the retention of radioiodide in the hNIS-transduced tumors (FIG. 7A). The average survival time for rats implanted with 10^5 F98/hNIS glioma cells was about 14-16 days. For studies of ^123I retention, images were acquired on days 13 to 15 following tumor implantation at which time ^123I (0.25 mCi) was administered via tail vein injection. Modified conjugate images were obtained sequentially with the rat first in dorsal-ventral and then ventral-dorsal positions on the top of the LEUHR collimator at 5 min, 20 min, 1 hr, 4 hr, 24 hr, and 37 hr following injection. […] Regions of interest (ROI) were drawn over the tumor, thyroid, and shoulder region (as a background) in two views (vertex and then ventral) of pinhole images for each different time point, and the geometric means of the count rates (counts/pixel) for each ROI in each view were calculated. […]

[7] = serial 123I scintigraphy, radioiodide retention in thyroid; type: in vivo, rat; details: in the thyroid, from time activity curve, tail vein injection
Description: Serial ^123I images were obtained to determine the retention of radioiodide in the hNIS-transduced tumors (FIG. 7A). The average survival time for rats implanted with 10^5 F98/hNIS glioma cells was about 14-16 days. For studies of ^123I retention, images were acquired on days 13 to 15 following tumor implantation at which time ^123I (0.25 mCi) was administered via tail vein injection. Modified conjugate images were obtained sequentially with the rat first in dorsal-ventral and then ventral-dorsal positions on the top of the LEUHR collimator at 5 min, 20 min, 1 hr, 4 hr, 24 hr, and 37 hr following injection. The acquisition time at 5 min post-injection image was 5 min, and the acquisition times at subsequent time points were corrected for the physical decay of ^123I. Regions of interest (ROI) were drawn over the tumor, thyroid, and shoulder region (as a background) in two views (vertex and then ventral) of pinhole images for each different time point, and the geometric means of the count rates (counts/pixel) for each ROI in each view were calculated. Biological half-life of radioiodine was estimated based on the time activity curve generated by plotting the tumor ROI count rates versus time.

[8] = test system: endogenous rat NIS in thyroid; experiment: thyroid 99mTcO4 scintigraphy and NIS Western blot in rats fed T4-supplemented diet; type: in vivo
Description: Western blot analysis was performed as previously described.^23 Briefly, the tumors were removed from the animals and homogenized in a homogenizing buffer (10 mM Tris-HCl (pH 7.5), 5 mM NaCl, 1 mM EDTA, 0.1 mM PMSF, 50 μg/ml leupeptin) containing 0.25 M sucrose. The lysates were centrifuged at 700 g for 10 min at 4° C. The supernatants were further centrifuged at 200,000 g for 60-90 min at 4° C. to obtain membrane fractions, which were resuspended in homogenizing buffer without sucrose and kept at −80° C. until use. The membrane fractions ([…] per lane) were solubilized for 30 min at 37° C. in the same volume of reducing sample buffer (0.125 M Tris-HCl (pH 6.8), 4% SDS, 10% β-mercaptoethanol, 20% glycerol) and subjected to 4-20% gradient or 7.5% SDS-PAGE. The proteins were transferred on to a nitrocellulose filter which was then blocked with 5% nonfat dry mild in TBST buffer (10 mM Tris-HCl (pH 8.0), 150 mM NaCl, 0.1% Tween 20) at 4° C. overnight. […]
Rats fed a T4-supplemented diet were expected to have reduced RAIU in thyroid, as the endogenous NIS expression and activity in thyroid tissues is TSH-dependent. […] In comparison, thyroid was readily detectable by ^99mTcO4 scintigraphy in rats fed a normal diet. […]

[9] = F98/hNIS with 131I treatment group
[10] = F98/LXSN with 131I treatment group

Which “99mTcO4 uptake in tumor” value [1] does the source give for `[O]=[99Tc](=[O])(=[O])[O-]` [99mTcO4] here?
The value was “intense”.

And the “99mTcO4 uptake in tumor” value [2]?
The value was “no ^99mTcO4 uptake was found”.

Which “effect on induced RAIU” value [3] does the source give for `[O-][Cl+3]([O-])([O-])O` [NaClO4, sodium perchlorate] here?
Its value is “suppressed; also recorded: inhibited”.

With `[131IH]` [131I] as the molecule, how does the average survival time ([4]; F98/hNIS tumors with 131I treatment, 3 i.p. injections, total 12 mCi) read?
Its average survival time is 45 ± 8.6 days.

What about the “prolongation of average survival time” value ([4]; F98/hNIS with 131I compared to F98/LXSN with 131I, P<0.01) of the same molecule?
The value was ~2 weeks.

What about the “prolongation of average survival time” value ([4]; F98/hNIS with 131I compared to F98/hNIS without 131I, P<0.05) of the same molecule?
Its value is 6 days.

What about the “tumor size at sacrifice, length perpendicular to the longest length” value [4, 9] of the same molecule?
Its value is 6.1±1.5 mm.

And the “tumor size at sacrifice, longest length” value [4, 9]?
The value was 8.5±1.9 mm.

And the average survival time ([5]; F98/LXSN tumors with 131I treatment, 3 i.p. injections, total 12 mCi)?
Its average survival time is 30.4 ± 3.2 days.

What about the “tumor size at sacrifice, length perpendicular to the longest length” value [5, 10] of the same molecule?
The value was 6.4±1.6 mm.

And the “tumor size at sacrifice, longest length” value [5, 10]?
Its value is 8.7±1.6 mm.

Which results are given for `[123IH]` [123I]?
123I uptake in tumor ([6]; F98/hNIS gliomas, by 37 hours post-injection): barely detectable; radioiodide uptake in tumor ([6]; F98/hNIS gliomas, through 24 hrs post-injection): evident; biological half-life of 123I ([6]; in F98/hNIS gliomas, from time activity curve, tail vein injection): 10 hours; biological half-life of 123I [7]: greater than 20 hours

What does the source list for `N[C@@H](Cc1cc(I)c(Oc2cc(I)c(O)c(I)c2)c(I)c1)C(=O)O` [T4, thyroxine]?
NIS glycoprotein in thyroid by Western blot ([8]; rats fed T4-supplemented diet): barely detected; thyroid detectability by 99mTcO4 scintigraphy ([8]; rats fed T4-supplemented diet for 11 days): not detectable
